# Data taken from patent US11484608B2, “Non-invasive assessment of hepatic mitochondrial metabolism by positional isotopomer NMR tracer analysis (PINTA)” (YALE UNIVERSITY, priority 2017, dated 2022).
# Legend:
# [1] = system: primary mouse hepatocytes; assay: In vitro glucose production, VPC and lipolysis in isolated hepatocytes; type: cell-based; conditions: for glucagon-stimulated VPC flux / glucagon-stimulated glucose production: WT hepatocytes, 100 nM glucagon, 8 hr
# Experimental: For in vitro glucose production and lipolysis studies, primary mouse hepatocytes were isolated by the Yale Liver Center. Following removal of cell debris by Percoll density gradient centrifugation, cells were plated on 6-well collagen-I coated dishes (4.0×10^5 cells/well) in 2 ml recovery media (DMEM High Glucose containing 10% FBS, 2% penicillin-streptomycin, 100 nM dexamethasone, 1 nM insulin, and 10 mM HEPES). After incubation for 6 hr at 37° C. and 5% CO2, the attached cells were washed once in 1×PBS and then incubated overnight in 2 ml Low Glucose Culture Media (DMEM Low Glucose supplemented with 10% FBS, 2% penicillin-streptomycin and 10 mM HEPES for glucose production studies) or Serum Free Low Glucose Culture Media (DMEM Low Glucose supplemented with 0.5% fatty acid free BSA, 2% penicillin-streptomycin and 10 mM HEPES for lipolysis assays). […] After incubation for 8 hr at 37° C. and 5% CO2, cell culture media was collected for analysis of glucose, NEFA, and glycerol concentrations as described above. VPC was determined by measuring VPC/VEGP by PINTA as described above using 300 μL of the collected media, and multiplying this ratio by the measured glucose production rate. In a subset of studies, cells were incubated for 8 hr during the glucose production assay in media containing one of the following agents (all dissolved in 0.5% DMSO), or 0.5% DMSO vehicle: 20 μM ET-18-OCH3 (Santa Cruz), 100 μM U-73122 (Sigma), 30 nM thapsigargin (Sigma), 100 nM vasopressin (Sigma) 50 μM 2-APB (R&D Systems), 70 μM caffeine (Sigma), 1 mM malic enzyme inhibitor hydroxymalonate (Sigma). To inhibit PKA, hepatocytes were incubated in H-89 […] hydrate (Sigma, 25 μM) dissolved in media, or media lacking H-89 as a control. In the insulin treatment studies, hepatocytes were incubated in 1 nM insulin with 5% BSA and glucose production media for the duration of the glucose production assay. In the in vitro atglistatin study, hepatocytes were incubated in 10 μM atglistatin in 0.1% EtOH, or 0.1% EtOH vehicle. All values were normalized to total protein content determined from whole-cell lysates by a BCA protein assay (Thermo Fisher Scientific) according to the manufacturer's instructions and expressed as fold change verses vehicle-treated cells.
# [2] = system: primary hepatocytes (cytosolic and mitochondrial calcium); assay: Ca2+ imaging in isolated hepatocytes; type: cell-based, mouse
# Experimental: Primary hepatocytes were isolated by the Yale Liver Center from wild-type and InsP3R-I KO mice and plated on glass coverslips coated with Rat Collagen Type I. Cells were loaded with the ratiometric cytosolic Ca^2+ indicator dye, Fura-2 AM (Thermo Fisher Scientific), or the mitochondrial matrix-targeted Ca^2+ indicator, Rhod-2 AM (Thermo Fisher Scientific) according to manufacturer's instructions. Ca^2+ imaging experiments were performed in 4-(2-hydroxyethyl)-1-piperazine ethanesulfonic acid (HEPES)-buffered balanced salt solution (25 mM HEPES, 121 mM NaCl, 4.7 mM KCl, 1.2 mM MgSO4, 1.2 mM KPO4, 5 mM NaHCO3, 2.0 mM CaCl2, 10 mM Glucose, pH 7.4) with or without the PKA inhibitor H-89 (25 μM) two to five hr following initial plating. Coverslips were transferred to a custom-built perfusion chamber on the stage of an inverted microscope connected to a RedShirtImaging camera (Olympus Life Science, Waltham, Mass.). […] For cytoplasmic calcium readings, changes in fluorescence (F, λ=340) were normalized by the initial fluorescence (F0, λ=380) and were expressed as F/F0. […] Individual cell responses were normalized to their respective baseline Rhod-2 AM fluorescence values, and changes were expressed as Normalized Δ Fluorescence.
# [3] = system: hepatic gluconeogenesis and mitochondrial oxidation (VPC, VCS); assay: Alanine replacement in 48 hr fasted rats; type: in vivo, rat
# Experimental: Hepatic fluxes (whole-body glucose turnover, VPC and VCS), liver TCA cycle intermediate concentrations, and plasma metabolites and hormones were measured as described below (Flux Measurements). […] Liver and muscle glycogen concentrations were assessed using amyloglucosidase digestion. Liver TAG content was measured using the method of Bligh and Dyer (Bligh and Dyer, Can. J. Biochem. Physiol. 37, 911-917, 1959): lipids were extracted from livers using 2:1 chloroform:methanol, and the Sekisui triglyceride-SL reagent was used to measure triglyceride content spectrophotometrically. Liver and muscle DAG content and liver acetyl- and malonyl-CoA concentrations were measured by LC-MS/MS as described by Yu and Perry (Yu, et al. J. Biol. Chem. 2002, 277, 50230-50236; Perry, et al., J. Clin. Invest. 2017, 127, 657-669). […] The samples were homogenized in […] ice-cold methanol using a TissueLyser and filtered through a Nanosep filter. LC-MS/MS (AbSCIEX 6500 QTRAP with a Shimadzu ultrafast liquid chromatography system, negative ion mode) was again used to monitor the relevant ion pairs: succinate and [^13C4]succinate, 117/99 and 121/103, respectively; malate and [^13C4]malate, 133/115 and 137/119, respectively; and citrate and [13C6]citrate, 191/173 and 197/179, respectively. […] Hepatic PKCε translocation, gluconeogenic enzyme protein expression, ApoB (antibody from Meridian Life Science, Memphis, Tenn.), and PGC1α (antibody from Santa Cruz Biotechnology, Dallas, Tex.) protein expression were assessed by western blot. Expression of each of these proteins was normalized to GAPDH.
# ATGL = target: T1, ATGL (Rattus norvegicus, UniProt P0C548); assay: ATGL inhibitor atglistatin in 0, 6, 16 and 48 hr fasted rats; type: in vivo
# T1 construct: from tissue; host or cells: live rat, in vivo (intraperitoneal dosing)
# T1 sequence (P0C548 1-478): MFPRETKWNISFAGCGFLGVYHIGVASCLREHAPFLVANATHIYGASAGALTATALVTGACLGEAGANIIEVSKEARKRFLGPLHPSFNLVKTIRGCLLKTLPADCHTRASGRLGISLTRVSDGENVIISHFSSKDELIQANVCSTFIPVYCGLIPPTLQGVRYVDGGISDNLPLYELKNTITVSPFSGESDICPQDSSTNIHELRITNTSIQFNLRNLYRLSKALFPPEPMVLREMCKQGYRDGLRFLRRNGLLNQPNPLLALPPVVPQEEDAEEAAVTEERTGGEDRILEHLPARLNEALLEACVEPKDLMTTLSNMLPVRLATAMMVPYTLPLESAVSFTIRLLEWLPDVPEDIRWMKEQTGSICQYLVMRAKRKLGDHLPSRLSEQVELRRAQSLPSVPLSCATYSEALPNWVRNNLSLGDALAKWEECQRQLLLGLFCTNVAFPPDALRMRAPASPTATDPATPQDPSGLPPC
# Experimental: Liver and muscle glycogen concentrations were assessed using amyloglucosidase digestion. Liver TAG content was measured using the method of Bligh and Dyer (Bligh and Dyer, Can. J. Biochem. Physiol. 37, 911-917, 1959): lipids were extracted from livers using 2:1 chloroform:methanol, and the Sekisui triglyceride-SL reagent was used to measure triglyceride content spectrophotometrically. Liver and muscle DAG content and liver acetyl- and malonyl-CoA concentrations were measured by LC-MS/MS as described by Yu and Perry (Yu, et al. J. Biol. Chem. 2002, 277, 50230-50236; Perry, et al., J. Clin. Invest. 2017, 127, 657-669). […] The samples were homogenized in […] ice-cold methanol using a TissueLyser and filtered through a Nanosep filter. LC-MS/MS (AbSCIEX 6500 QTRAP with a Shimadzu ultrafast liquid chromatography system, negative ion mode) was again used to monitor the relevant ion pairs: succinate and [^13C4]succinate, 117/99 and 121/103, respectively; malate and [^13C4]malate, 133/115 and 137/119, respectively; and citrate and [13C6]citrate, 191/173 and 197/179, respectively. […] Hepatic PKCε translocation, gluconeogenic enzyme protein expression, ApoB (antibody from Meridian Life Science, Memphis, Tenn.), and PGC1α (antibody from Santa Cruz Biotechnology, Dallas, Tex.) protein expression were assessed by western blot. Expression of each of these proteins was normalized to GAPDH.
# glucocorticoid receptor = glucocorticoid receptor (Rattus norvegicus, UniProt P06536)
# Experimental: 8, 16, and 48 hr fasted rats were injected with a small molecule inhibitor of glycogen phosphorylase, 1-(3-(3-(2-Chloro-4,5-difluorobenzoyl) ureido)-4-methoxyphenyl)-3-methylurea (Sigma #361515; 5 mg/kg IV) and a tracer infusion of [2,3,3,3-^2H4]alanine ([…]prime for 5 min and […] continuous) and [3-^3H]glucose (0.3 μCi/min prime for 5 min and 0.3 μCi/min continuous) as well as [^13C4] β-hydroxybutyrate, [1,1,2,3,3-^2H5]glycerol, and [^13C16]palmitate at the rates listed in Table 9, for 120 min. Blood samples were obtained before (time zero) and 120 min after treatment with the glycogen phosphorylase inhibitor for measurement of turnover rates and plasma hormone/substrate concentrations. Hepatic acetyl-CoA content was altered by treatment with a CPT-1 inhibitor (etomoxir, 8 mg/kg) or an ATGL inhibitor (atglistatin, […]) in 0, 6, 16, and 48 hr fasted rats. Both agents were solubilized by suspending the drug in 4% ethanol/96% normal saline, heating to 60° C., and sonicating, and were cooled to room temperature before they were injected intraperitoneally. […] In these animals plasma glucose concentrations were measured every 15 minutes and a variable infusion of 20% glucose (Pfizer Hospira, Lake Forest, Ill.) was used to maintain plasma glucose concentrations ˜3.6-3.7 mM. The physiologic role of glucocorticoids was assessed in 6 and 48 hr fasted rats by treatment with a glucocorticoid receptor antagonist, mifepristone. Following a 2 hr tracer infusion at the rates described above to assess fatty acid, glycerol, glucose, and β-hydroxybutyrate turnover, rats were injected with mifepristone (40 mg/kg) IV. The tracer infusion was continued and the tracer of each of the above substrates was again measured 2 hr after treatment with mifepristone.
# All whole-body substrate turnover rates were calculated using the equation Turnover=([Tracer APE/Plasma APE]−1)*Infusion rate, where APE designates the atom percent enrichment measured by mass spectrometry as described below (Biochemical Analysis). All chemicals used for flux analysis were obtained from SIGMA. Turnover of glucose, glycerol, and β-hydroxybutyrate were determined by gas chromatography-mass spectrometry (GC-MS). Briefly, both glucose and glycerol were deprotonized with 5 volumes of methanol, derivitized with 3 volumes of 1:1 acetic anhydride:pyridine, heated to 65° C. for 20 min, and 1 volume of methanol was added, then GC-MS was used in CI mode to measure glucose enrichment and EI mode to measure glycerol enrichment, with turnover calculated using the equation above. β-Hydroxybutyrate was deprotonized with 5 volumes of methanol and derivitized with 3 volumes of n-butanol 4N HCl, after which the samples were heated to 65° C. for 60 min, evaporated under N2 gas, and re-suspended in […] of trifluoroacetic acid:methylene chloride (1:7). Fatty acid turnover was measured by determining the plasma palmitate enrichment by GC-MS. Samples were prepared for measurements of palmitate enrichment by evaporating […] plasma, dissolving in […] 1:1 chloroform:methanol and derivitizing with […] boron trifluoride/methanol, then heating to 100° C. for 5 min, adding 2 mL pentane and 1 mL water, and centrifuging at low speed for 5 min. […] Alanine turnover was determined in rats infused with [2,3,3,3-^2H4]alanine by preparing samples to measure alanine enrichment by GC/MS (CI mode) using the same protocol as was employed to measure β-hydroxybutyrate enrichment.
# [4] = 48-hr fasted rats, 40 mg/kg IV, 2 hr
# [5] = hepatocytes, 100 nM vasopressin
# Sequence of glucocorticoid receptor (P06536 whole entry, the tested form may be a part): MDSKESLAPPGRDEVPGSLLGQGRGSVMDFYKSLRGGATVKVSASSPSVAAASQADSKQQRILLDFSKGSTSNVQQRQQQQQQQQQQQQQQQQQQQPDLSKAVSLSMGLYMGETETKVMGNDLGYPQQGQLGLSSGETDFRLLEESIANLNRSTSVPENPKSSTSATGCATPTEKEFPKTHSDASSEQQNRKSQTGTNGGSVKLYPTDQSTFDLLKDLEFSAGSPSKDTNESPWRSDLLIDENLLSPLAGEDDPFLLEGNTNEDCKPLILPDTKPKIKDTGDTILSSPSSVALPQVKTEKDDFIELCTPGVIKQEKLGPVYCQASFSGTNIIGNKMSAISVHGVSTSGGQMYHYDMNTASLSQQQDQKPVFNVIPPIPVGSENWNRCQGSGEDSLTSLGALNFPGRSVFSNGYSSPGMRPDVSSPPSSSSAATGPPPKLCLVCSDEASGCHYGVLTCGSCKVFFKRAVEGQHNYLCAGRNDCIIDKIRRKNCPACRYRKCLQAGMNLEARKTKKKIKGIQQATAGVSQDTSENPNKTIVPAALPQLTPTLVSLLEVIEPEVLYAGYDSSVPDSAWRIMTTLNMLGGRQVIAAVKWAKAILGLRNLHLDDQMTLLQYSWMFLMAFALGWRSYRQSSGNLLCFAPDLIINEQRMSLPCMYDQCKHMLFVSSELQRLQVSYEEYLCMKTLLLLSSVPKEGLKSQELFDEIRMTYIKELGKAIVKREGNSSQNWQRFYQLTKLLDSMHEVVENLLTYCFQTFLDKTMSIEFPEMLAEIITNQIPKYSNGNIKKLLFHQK
smiles,measurement,setting,value
"O=S(=O)(NCCNC/C=C/c1ccc(Br)cc1)c1cccc2cnccc12 [H-89, H-89 dichloroacetate hydrate]",glucagon-stimulated VPC flux,[1],abrogated
same,glucagon-stimulated glucose production,[1],abrogated
same,effect of glucagon to stimulate intrahepatic lipolysis,[1]; isolated hepatocytes,abrogated
same,calcium response to glucagon,"[2]; WT hepatocytes, H-89 25 μM",abrogated
C[C@H](N)C(=O)O [alanine],"plasma glucose, insulin, and lactate concentrations",[3]; alanine 45 mmol/(kg-min) 2 hr,increased
same,endogenous glucose production,[3]; alanine infusion,increased
same,increase in plasma leptin concentrations,[3]; alanine infusion,3 fold
same,liver tricarboxylic acid cycle intermediate concentrations,[3]; alanine infusion,increased
same,plasma glucagon,[3]; alanine infusion,independent of any change
same,pyruvate carboxylase flux (VPC),[3]; alanine infusion,increased
same,rates of hepatic mitochondrial oxidation (VCS),[3]; alanine infusion,increased
CN(C)C(=O)Nc1cccc(-c2ccc(N(C)C)cc2)c1 [atglistatin],glucagon-stimulated VPC flux,[1],no effect
same,glucagon-stimulated glucose production,[1],no effect
same,plasma corticosterone concentration,ATGL; 16- and 48-hr fasted rats,increases
same,plasma glucose concentrations,ATGL; 16- and 48-hr fasted rats,decreased
same,plasma leptin,ATGL; 16- and 48-hr fasted rats,reductions
same,"hepatic acetyl-CoA content, hepatic gluconeogenesis, and plasma glucose and insulin concentrations",ATGL; 16- to 48-hr fasted rats,suppressed
same,WAT lipolysis,ATGL; 48-hr fasted rats,suppression
same,hepatic acetyl-CoA content,ATGL; 48-hr fasted rats,suppression
same,"plasma lactate, epinephrine, and norepinephrine concentrations and hepatic malonyl-CoA content",ATGL; fasted rats,unchanged
CC#C[C@]1(O)CC[C@H]2[C@@H]3CCC4=CC(=O)CCC4=C3[C@@H](c3ccc(N(C)C)cc3)C[C@@]21C [mifepristone],reduction in plasma leptin concentrations,glucocorticoid receptor; 48-hr fasted rats,60%
same,WAT lipolysis,glucocorticoid receptor; [4],decreased
same,ketogenesis,glucocorticoid receptor; [4],decreased
same,plasma glucose concentrations,glucocorticoid receptor; [4],decreased
same,whole-body glucose turnover,glucocorticoid receptor; [4],decreased
same,"WAT lipolysis, whole body glucose turnover, or plasma glucose or insulin concentrations",glucocorticoid receptor; recently fed rats (6 hr),no impact
NC(=O)CC[C@@H]1NC(=O)[C@H](Cc2ccccc2)NC(=O)[C@H](Cc2ccc(O)cc2)NC(=O)[C@@H](N)CSSC[C@@H](C(=O)N2CCC[C@H]2C(=O)N[C@@H](CCCN=C(N)N)C(=O)NCC(N)=O)NC(=O)[C@H](CC(N)=O)NC1=O [vasopressin],VPC (effect of glucagon),[1]; [5],recapitulated
same,glucose production (effect of glucagon),[1]; [5],recapitulated
same,intrahepatic lipolysis (effect of glucagon),"[1]; hepatocytes, vasopressin",recapitulated
same,mitochondrial and cytosolic calcium signaling,"[2]; isolated WT hepatocytes (not InsP3R-I KO), 100 nM glucagon or 50 nM vasopressin",almost identical increase
